Structures can show the parent of a compound that is named as a salt.
Assays:
[1] = molecular target: T1, proMMP9(67-444;ΔFnII) (SEQ ID NO:5) (Homo sapiens, UniProt P14780, DEL216-390); test: ThermoFluor binding assay with proMMP9(67-444;ΔFnII)
T1 construct: start methionine (N); made in house; host or cells: E. coli BL21(DE3) RIL
T1 sequence (P14780 with tags, fused parts or gaps DEL216-390): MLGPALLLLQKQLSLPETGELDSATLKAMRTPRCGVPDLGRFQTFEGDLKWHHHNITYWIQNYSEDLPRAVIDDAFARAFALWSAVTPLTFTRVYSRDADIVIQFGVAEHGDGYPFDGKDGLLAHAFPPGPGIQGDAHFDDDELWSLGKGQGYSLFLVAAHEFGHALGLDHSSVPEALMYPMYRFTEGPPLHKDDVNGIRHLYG
Method in brief: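 Thermal shift with 3.5 μM desalted proMMP9(67-444;ΔFnII) and 50 μM 1,8-ANS in 50 mM HEPES pH 7.0, 100 mM NaCl, 0.001% Tween-20, 2.5 mM MgCl2, 300 μM CaCl2; compounds serially diluted. Heated 40–90 °C at 1 °C/min, fluorescence at 500 nm; Tm fit, binding modelled using DSC-derived thermodynamic parameters.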

[2] = molecular target: T2, proMMP9(20-445;ΔFnII) (SEQ ID NO:6) (Homo sapiens, UniProt P14780, DEL216-390); test: ThermoFluor binding assay with proMMP9(20-445;ΔFnII)
T2 construct: start methionine (N); made in house; host or cells: E. coli BL21(DE3) RIL
T2 sequence (P14780 with tags, fused parts or gaps DEL216-390): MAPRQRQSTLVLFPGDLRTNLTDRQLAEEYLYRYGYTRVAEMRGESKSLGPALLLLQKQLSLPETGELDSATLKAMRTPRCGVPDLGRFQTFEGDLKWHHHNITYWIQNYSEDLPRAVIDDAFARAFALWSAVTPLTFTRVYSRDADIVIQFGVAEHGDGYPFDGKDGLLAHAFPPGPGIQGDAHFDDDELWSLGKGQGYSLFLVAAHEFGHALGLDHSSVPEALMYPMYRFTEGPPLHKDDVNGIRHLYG
Method in brief: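 Thermal-shift binding using 2.8 μM proMMP9(20-445;ΔFnII) with 50 μM 1,8-ANS in 50 mM HEPES pH 7.0, 100 mM NaCl, 0.001% Tween-20, 2.5 mM MgCl2, 300 μM CaCl2. Compound serially diluted; heated 40–90 °C at 1 °C/min, fluorescence 500 nm. Tm shifts fitted using DSC/ThermoFluor-derived thermodynamic parameters.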

[3] = molecular target: T3, proMMP13(1-268) (SEQ ID NO:7) (Homo sapiens, UniProt P45452); test: ThermoFluor binding assay with proMMP13(1-268)
T3 construct: 6xHis (C); made in house; host or cells: HEK293 (transient, secreted)
Experimental: The ThermoFluor® (TF) assay is a 384-well plate-based binding assay that measures thermal stability of proteins (Biomol Screen 2001, 6, 429-40; Biochemistry 2005, 44, 5258-66). The experiments were carried out using instruments available from Johnson & Johnson Pharmaceutical Research & Development, LLC. TF dye used in all experiments was […] (1,8-ANS) (Invitrogen: A-47).
Compounds were arranged in a pre-dispensed plate (Greiner Bio-one: 781280), wherein compounds were serially diluted in 100% DMSO across 11 columns within a series. Columns 12 and 24 were used as DMSO reference and contained no compound. For multiple compound concentration-response experiments, the compound aliquots ([…]) were robotically predispensed directly into black 384-well polypropylene PCR microplates (Abgene: TF-0384/k) using a Cartesian Hummingbird liquid handler (DigiLab, Holliston, Mass.). Following compound dispense, protein and dye solutions were added to achieve the final assay volume of 3 μL. The assay solutions were overlayed with 1 μL of silicone oil (Fluka, type DC 200: 85411) to prevent evaporation.
Assay plates were robotically loaded onto a thermostatically controlled PCR-type thermal block and then heated from 40 to 90° C. at a ramp-rate of 1° C./min for all experiments. Fluorescence was measured by continuous illumination with UV light (Hamamatsu LC6) supplied via fiber optics and filtered through a band-pass filter (380-400 nm; >60D cutoff). Fluorescence emission of the entire 384-well plate was detected by measuring light intensity using a CCD camera (Sensys, Roper Scientific) filtered to detect 500±25 nm, resulting in simultaneous and independent readings of all 384 wells. A single image with 20-sec exposure time was collected at each temperature, and the sum of the pixel intensity in a given area of the assay plate was recorded vs temperature and fit to standard equations to yield the Tm (J Biomol Screen 2001, 6, 429-40).
Thermodynamic parameters necessary for fitting compound binding for each proMMP were estimated by differential scanning calorimetry (DSC) and from ThermoFluor® data. The heat capacity of unfolding for each protein was estimated from the molecular weight and from ThermoFluor® dosing data.
ThermoFluor® with proMMP13(1-268) (SEQ ID NO: 7)
The proMMP13(1-268) (SEQ ID NO:7) protein sample preparations included a desalting buffer exchange step via a PD-10 gravity column (GE Healthcare). The desalting buffer exchange was performed prior to diluting the protein to the final assay concentration of 3.5 μM. The concentration of proMMP13(1-268) (SEQ ID NO:7) was estimated spectrophotometrically based on a calculated extinction coefficient of ε280=37000 M^−1cm^−1, a calculated molecular weight of 30.8 kDa, and calculated pI of 5.33. ThermoFluor® reference conditions were defined as follows: 100 μg/mL proMMP13(1-268) (SEQ ID NO:7), 25 μM 1,8-ANS, pH 7.0 Buffer (50 mM HEPES pH 7.0, 100 mM NaCl, 0.001% Tween-20, 2.5 mM MgCl2, 300 μM CaCl2). The thermodynamic parameters for proMMP13(1-268) (SEQ ID NO:7) are as follows: Tm (° C.)=67 (+/−0.1), ΔUH(Tm) (cal mol^−1)=107000(+/−5000), ΔUS(Tm) (cal mol^−1 K^−1)=318, ΔUCp (cal mol^−1 K^−1)=2600.

[4] = molecular target: T4, full-length proMMP9(1-707) (SEQ ID NO:1), activation by catalytic MMP3 (Homo sapiens, UniProt P14780, R574P); test: proMMP9/MMP3 P126 Activation Assay; assay type: biochemical
T4 construct: made in house; host or cells: HEK293 (proMMP9, secreted); E. coli (MMP3)
Experimental: proMMP9/MMP3 P126 Activation Assay
The reaction volume was 50 μL. […] Reactivity of residual MMP3 towards P-126 substrate was minimal under these conditions.

[5] = molecular target: T5, proMMP13(1-268) (SEQ ID NO:7), activation by plasmin (Homo sapiens, UniProt P45452); test: ProMMP13/Plasmin P126 Activation Assay; assay type: biochemical
T5 construct: 6xHis (C); made in house; host or cells: HEK293 (proMMP13, secreted)
Experimental: ProMMP13/Plasmin P126 Activation Assay
On the day of assay, proMMP13(1-268) (SEQ ID NO:7) purified from HEK293 cells and plasmin were diluted to 160 nM and 320 nM, respectively, in assay buffer. The reaction volume was 50 μL. […] The plate was sealed and incubated for 40 min at 37° C. […] Plasmin was not reactive towards P-126 substrate under these conditions.

[6] = molecular target: T6, full-length proMMP9(1-707) (SEQ ID NO:1) from COS-1 cells, activation by catalytic MMP3 (Homo sapiens, UniProt P14780, R574P); test: ProMMP9/MMP3 DQ Gelatin Activation Assay; assay type: biochemical; settings: read-out: ProMMP9/MMP3 DQ gel Activation Assay, IC50
T6 construct: made in house; host or cells: COS-1 (proMMP9, secreted); E. coli (MMP3)
Description: ProMMP9/MMP3 DQ Gelatin Activation Assay

T4 sequence (P14780 20-707 R574P): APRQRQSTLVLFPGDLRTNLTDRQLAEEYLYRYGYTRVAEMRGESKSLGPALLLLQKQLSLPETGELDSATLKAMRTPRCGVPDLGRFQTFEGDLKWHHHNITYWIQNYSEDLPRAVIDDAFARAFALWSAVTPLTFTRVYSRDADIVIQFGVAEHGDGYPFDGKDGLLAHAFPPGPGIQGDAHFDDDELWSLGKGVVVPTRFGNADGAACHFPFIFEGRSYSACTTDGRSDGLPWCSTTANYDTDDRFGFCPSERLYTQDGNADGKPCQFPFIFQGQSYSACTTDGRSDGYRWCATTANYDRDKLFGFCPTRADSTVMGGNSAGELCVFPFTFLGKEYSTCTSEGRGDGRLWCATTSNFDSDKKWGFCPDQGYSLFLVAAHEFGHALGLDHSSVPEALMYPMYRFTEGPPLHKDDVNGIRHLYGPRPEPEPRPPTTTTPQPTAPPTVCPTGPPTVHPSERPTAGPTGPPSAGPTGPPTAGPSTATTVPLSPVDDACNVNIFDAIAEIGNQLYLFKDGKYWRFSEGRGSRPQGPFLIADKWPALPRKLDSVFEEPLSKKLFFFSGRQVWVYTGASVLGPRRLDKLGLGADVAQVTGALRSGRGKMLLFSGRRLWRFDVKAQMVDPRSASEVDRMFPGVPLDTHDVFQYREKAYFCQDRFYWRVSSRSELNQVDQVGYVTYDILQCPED
T6 sequence (P14780 20-707 R574P): as above

Which Kd [1] does the source give for `CC(C)Oc1ccc(C(N)=O)cc1Nc1nc(-c2ccc(Cl)nc2)cs1` [Example 26, 3-[4-(6-Chloro-pyridin-3-yl)-thiazol-2-ylamino]-4-isopropoxy-benzamide.TFA] here?
Its Kd is 3.3 µM.

What about the Kd [2] of the same compound?
The Kd was 320 nM.

And the Kd [3]?
The Kd was 250 nM.

What about the IC50 [4] of the same compound?
Its IC50 is 680 nM.

How did the Kd [1] turn out when `CC(C)Oc1ccc(C(N)=O)cc1Nc1nc(-c2ccc(N3CCN(C)CC3)nc2)cs1` [Example 27, 4-Isopropoxy-3-{4-[6-(4-methyl-piperazin-1-yl)-pyridin-3-yl]-thiazol-2-ylamino}-benzamide.TFA] was run?
The Kd was 0.38 µM.

And the Kd [2]?
The Kd was 39 nM.

And the Kd [3]?
The Kd was 280 nM.

And the IC50 [4]?
The IC50 was 150 nM.

And the IC50 [5]?
The IC50 was 900 nM.

Which results are given for `COc1ccc([N+](=O)[O-])cc1Nc1nc(-c2cccnc2)cs1` [Example 60, (2-Methoxy-5-nitro-phenyl)-(4-pyridin-3-yl-thiazol-2-yl)-amine]?
IC50 [6]: 5.5 µM; Kd [1]: > 95 µM; Kd [2]: > 95000 nM; Kd [3]: 78000 nM
